# Assay results: US11071731B2, “Allosteric modulators of the mu opioid receptor” (Chiromics, LLC, priority 2017, dated 2021)
# Read-outs that look alike come from different tables or passages of the source.
# Assays:
# Sprague-Dawley rats = assay: Respiratory depression: blood oxygen saturation by pulse oximetry; format: in vivo; settings: subcutaneous; morphine 10 mg/kg, compound 9 15, 30, 60 mg/kg; 90 minutes
# Description: Respiratory depression is a significant side effect associated with opioid treatment of acute and chronic pain. Drug-related overdose deaths are often a function of the respiratory depression which occurs with opioid use. Efforts to generate analgesics that dissociate pain relief from side effects are critical to the advancement of public health. […] […].
# Blood oxygen saturation was assessed in awake rats with the MouseOx oximeter system (Starr Life Sciences, Holliston, Mass.). Up to 5 samples were measured every 5 minutes for 15 minutes prior to dosing and 90 minutes after dosing. Each animal was habituated to the device over several days prior to the study.
# MOR [1] = biological target: T1, MOR (Homo sapiens, UniProt P35372); format: cell-based; settings: cAMP; EC20 EM2 agonism of MOR
# T1 sequence (P35372 whole entry): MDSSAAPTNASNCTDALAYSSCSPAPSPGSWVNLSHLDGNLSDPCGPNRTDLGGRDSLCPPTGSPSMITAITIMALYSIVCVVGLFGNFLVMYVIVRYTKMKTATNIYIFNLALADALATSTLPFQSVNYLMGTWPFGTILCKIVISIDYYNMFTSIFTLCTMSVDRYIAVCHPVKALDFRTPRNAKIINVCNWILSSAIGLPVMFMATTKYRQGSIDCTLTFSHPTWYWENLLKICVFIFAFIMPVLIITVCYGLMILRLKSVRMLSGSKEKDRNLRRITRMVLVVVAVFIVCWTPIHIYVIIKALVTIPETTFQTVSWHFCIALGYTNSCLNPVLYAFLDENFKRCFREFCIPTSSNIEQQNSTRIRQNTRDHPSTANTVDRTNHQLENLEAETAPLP
# mu opioid receptor (MOR) = mu opioid receptor (MOR) (Homo sapiens, UniProt P35372); assay: Hit Hunter cAMP signaling assay (adenylyl cyclase inhibition), PAM mode with EC20 endomorphin-1; format: cell-based
# Sequence of mu opioid receptor (MOR) (P35372 whole entry): as above
# MOR [2] = biological target: T1, MOR; assay: cell-based; settings: EC20 Oxycodone agonism of MOR
# MOR [3] = biological target: T1, MOR; format: cell-based; settings: β-arrestin; EC20 EM2 agonism of MOR
smiles,measurement,setting,value
"Fc1cnc(Cl)nc1N1CCCCC1c1cccc(C(F)(F)F)c1 (single isomer, unassigned) [compound 9]",oxygen saturation / respiratory depression,Sprague-Dawley rats,did not induce respiratory depression
same,Max. Response,MOR [1],80
same,EC50,"mu opioid receptor (MOR); RC50 for adenylyl cyclase inhibition, EM1-mediated MOR agonism",590 nM
same,EC50,"mu opioid receptor (MOR); cAMP EC50, adenylyl cyclase inhibition",< 700 nM
same,Max. Response,"mu opioid receptor (MOR); cAMP, EC20 EM-1 agonism of MOR",75
same,cAMP Max. Resp.,mu opioid receptor (MOR); maximal response for adenylyl cyclase inhibition,F (F represents a maximal response of > 60%)
same,EC50,"MOR [2]; RC50, β-arrestin",11.1 µM
same,Max. Response,MOR [2]; β-arrestin,296
same,Max. Response,MOR [3],138
